Consider one compound from publication PMC8839939 (Polymers, 2022).

For data set [1] the following is noted: cited from earlier work.
A short description of data set [2]: In-vivo pharmacokinetic study in mice. The conditions noted are these: mouse, plasma. On the procedure: In in-vivo study, the average mouse weight was 24 ± 5 g. Mice were acclimated for 7 days prior to the study and fasted for 24 h before the study. All in-vivo experiments were approved by the ethical committee, Faculty of Pharmacy, Gomal University (No: 10/ERB/GU). The mice were anesthetized under gas anesthesia (i.e., isoflurane in oxygen (2–4% (v/v))). Bulk hairs were removed with an electrical clipper and then a depilatory cream was applied to remove the remaining hair that could interfere with the insertion of LS-TC-MNP [41, 42]. Hairs were removed from the back area of mouse at 4 h prior to experiment. Mice were divided into two groups (n = 16 per group (total: 32)); oral (given the oral LS dispersion) and transdermal (LS-TC-MNP inserted in skin). Mice in the oral group received an oral LS dispersion of (200 mg/kg). The transdermal group was the LS-TC-MNP treatment group, in which each mouse was treated with (LS = 25 mg) LS-TC-MNP. To facilitate the insertion of LS-TC-MNP, the mice were anesthetized by gas anesthesia. The mice skin was pinched, and LS-TC-MNP attached to self-adhesive margins was inserted with firm finger pressure onto the back of each mouse. Blood samples were withdrawn by bleeding the tail vein at predetermined time intervals. The study plan was 16 mice per group and a maximum of (n = 3) blood samples was withdrawn from each mouse. Each mouse was bled twice a day. After 1 and 4 h, blood was withdrawn from the first 4 mice; the next 4 mice were bled after 2 and 6 h; the next four mice at 8 and 24 h; the remaining 4 mice at 12 h; and all mice (n = 16) at 48 h. The area under the curve and other pharmacokinetic parameters were measured by using Pk solver software (Microsoft Excel add-in programm).

Turning to `CCN1CCC[C@H]1CNC(=O)c1cc(S(N)(=O)=O)ccc1OC` [Levosulpiride, 5-(amino-sulfonyl)-N-[(1-ethyl-2-pyrrolidinyl)methyl]-2-methoxy benzamide], the “intravenous dose excreted unchanged in the urine” value in data set [1] (intravenous ref 6) is listed as 70–90%. For the same compound, in data set [1] (oral ref 4), the half-life result is recorded as “about 6 h” and the oral bioavailability entry is reported as “less than 25%”. Moreover, in data set [1] (oral ref 6), the “oral dose excreted unchanged in the urine” value was 15–25%. The compound also had a concentration at 1 h in data set [2] (1 h, patch LS = 25 mg transdermal or oral dispersion 200 mg/kg) of 500 ± 1940 ng/mL. The concentration at 2 h in data set [2] (2 h, oral dispersion 200 mg/kg, read-out: LS plasma concentration) stood at 200 ng/mL. Moreover, in data set [2] (4 h, oral dispersion 200 mg/kg, read-out: LS plasma concentration), the concentration at 4 h came to 180 ng/mL. The compound also returned a concentration at 6 h in data set [2] (6 h, patch LS = 25 mg transdermal or oral dispersion 200 mg/kg) of 400 ± 1370 ng/mL.
